Measured values from ChEMBL document CHEMBL3045062, “Potent in vitro and in vivo antitubercular activity of certain newly synthesized indophenazine 1,3,5-trisubstituted pyrazoline derivatives bearing benzofuran” (Med Chem Res, 2011).
In brackets after ≈: the same amount, converted by molar mass.

How the values were obtained:
[1] = tested on: Vero; test: Cytotoxicity against Chlorocebus aethiops (African green monkey) Vero cells after 72 hr; assay type: cell-based; details: Chlorocebus sabaeus
[2] = tested on: Mycobacterium tuberculosis; test: Antitubercular activity against Mycobacterium tuberculosis H37Rv after 60 days; assay type: functional

O=C(Cn1c2ccccc2c2nc3ccccc3nc21)N1N=C(c2cc3cc(O)ccc3o2)CC1/C=C/c1ccccc1 (configuration not stated) was tested, and the IC50 [1] was greater than 206 µM, the MIC50 [2] was 0.98 µg/mL (≈ 1.74 µM) and the MIC90 [2] was 3.67 µg/mL (≈ 6.51 µM).

O=C(Cn1c2ccccc2c2nc3ccccc3nc21)N1N=C(c2cc3cc(O)ccc3o2)CC1c1ccc(O)cc1 (configuration not stated) gave an IC50 [1] greater than 245 µM.

Work on CO[C@H]1/C=C/O[C@@]2(C)Oc3c(C)c(O)c4c(O)c(c(/C=N/N5CCN(C)CC5)c(O)c4c3C2=O)NC(=O)/C(C)=C\C=C\[C@H](C)[C@H](O)[C@@H](C)[C@@H](O)[C@@H](C)[C@H](OC(C)=O)[C@@H]1C [RIFAMPIN] yielded an IC50 [1] greater than 77.4 µM, an MIC50 [2] of 0.5 µg/mL (≈ 0.608 µM) and an MIC90 [2] of 2 µg/mL (≈ 2.43 µM).

In the case of COc1ccc(C2CC(c3cc4cc(O)ccc4o3)=NN2C(=O)Cn2c3ccccc3c3nc4ccccc4nc32)cc1 (configuration not stated), the IC50 [1] is reported as greater than 226 µM, the MIC50 [2] is reported as 12.1 µg/mL (≈ 21.3 µM) and the MIC90 [2] is reported as 14.3 µg/mL (≈ 25.2 µM).

In the case of O=C(Cn1c2ccccc2c2nc3ccccc3nc21)N1N=C(c2cc3cc(O)ccc3o2)CC1c1ccccc1 (configuration not stated), the IC50 [1] is reported as greater than 197 µM.

O=C(Cn1c2ccccc2c2nc3ccccc3nc21)N1N=C(c2cc3cc(O)ccc3o2)CC1c1cccc([N+](=O)[O-])c1 (configuration not stated) showed an IC50 [1] greater than 180 µM, an MIC50 [2] of 0.62 µg/mL (≈ 1.06 µM) and an MIC90 [2] of 1.24 µg/mL (≈ 2.13 µM).

Compound CC(=O)c1ccccc1C1CC(c2cc3cc(O)ccc3o2)=NN1C(=O)Cn1c2ccccc2c2nc3ccccc3nc21 (configuration not stated) has an IC50 [1] greater than 220 µM.

O=C(Cn1c2ccccc2c2nc3ccccc3nc21)N1N=C(c2cc3cc(O)ccc3o2)CC1c1ccccc1O (configuration not stated) showed an IC50 [1] greater than 227 µM, an MIC50 [2] of 9.81 µg/mL (≈ 17.7 µM) and an MIC90 [2] of 10.8 µg/mL (≈ 19.6 µM).

Compound COc1ccc(C2CC(c3cc4cc(O)ccc4o3)=NN2C(=O)Cn2c3ccccc3c3nc4ccccc4nc32)c(O)c1 (configuration not stated) has an IC50 [1] greater than 206 µM, an MIC50 [2] of 4.56 µg/mL (≈ 7.81 µM) and an MIC90 [2] of 8.32 µg/mL (≈ 14.3 µM).

With COc1ccccc1C1CC(c2cc3cc(O)ccc3o2)=NN1C(=O)Cn1c2ccccc2c2nc3ccccc3nc21 (configuration not stated) the IC50 [1] was greater than 226 µM, the MIC50 [2] was 11.8 µg/mL (≈ 20.8 µM) and the MIC90 [2] was 14.2 µg/mL (≈ 25 µM).

With CN(C)c1ccc(C2CC(c3cc4cc(O)ccc4o3)=NN2C(=O)Cn2c3ccccc3c3nc4ccccc4nc32)cc1 (configuration not stated) the IC50 [1] was greater than 216 µM, the MIC50 [2] was 5.56 µg/mL (≈ 9.58 µM) and the MIC90 [2] was 9.21 µg/mL (≈ 15.9 µM).

Compound O=C(Cn1c2ccccc2c2nc3ccccc3nc21)N1N=C(c2cc3cc(O)ccc3o2)CC1c1ccccc1[N+](=O)[O-] (configuration not stated) has an IC50 [1] greater than 144 µM, an MIC50 [2] of 0.16 µg/mL (≈ 0.275 µM) and an MIC90 [2] of 0.42 µg/mL (≈ 0.721 µM).

Compound O=C(Cn1c2ccccc2c2nc3ccccc3nc21)N1N=C(c2cc3cc(O)ccc3o2)CC1c1ccccc1Cl (configuration not stated) has an IC50 [1] greater than 196 µM, an MIC50 [2] of 1.75 µg/mL (≈ 3.06 µM) and an MIC90 [2] of 2.56 µg/mL (≈ 4.48 µM).

Compound O=C(Cn1c2ccccc2c2nc3ccccc3nc21)N1N=C(c2cc3cc(O)ccc3o2)CC1c1ccc(Cl)cc1 (configuration not stated) has an IC50 [1] greater than 205 µM, an MIC50 [2] of 2.45 µg/mL (≈ 4.28 µM) and an MIC90 [2] of 4.2 µg/mL (≈ 7.34 µM).

COc1c(N2CCNC(C)C2)c(F)cc2c(=O)c(C(=O)O)cn(C3CC3)c12 (configuration not stated) [GATIFLOXACIN] showed an IC50 [1] greater than 160 µM, an MIC50 [2] of 0.12 µg/mL (≈ 0.32 µM) and an MIC90 [2] of 0.5 µg/mL (≈ 1.33 µM).

For O=C(Cn1c2ccccc2c2nc3ccccc3nc21)N1N=C(c2cc3cc(O)ccc3o2)CC1c1ccco1 (configuration not stated), the IC50 [1] was greater than 198 µM, the MIC50 [2] was 1.1 µg/mL (≈ 2.09 µM) and the MIC90 [2] was 3.12 µg/mL (≈ 5.91 µM).
